Here are results for one compound from US9820487B2, “Abscinazole” (NATIONAL UNIVERSITY CORPORATION SHIZUOKA UNIVERSITY, priority 2014, dated 2017).

The target of assay [1] is T1, abscisic acid 8′-hydroxylase CYP707A3 (Arabidopsis thaliana, UniProt Q9FH76).
T1 sequence (Q9FH76 1-463): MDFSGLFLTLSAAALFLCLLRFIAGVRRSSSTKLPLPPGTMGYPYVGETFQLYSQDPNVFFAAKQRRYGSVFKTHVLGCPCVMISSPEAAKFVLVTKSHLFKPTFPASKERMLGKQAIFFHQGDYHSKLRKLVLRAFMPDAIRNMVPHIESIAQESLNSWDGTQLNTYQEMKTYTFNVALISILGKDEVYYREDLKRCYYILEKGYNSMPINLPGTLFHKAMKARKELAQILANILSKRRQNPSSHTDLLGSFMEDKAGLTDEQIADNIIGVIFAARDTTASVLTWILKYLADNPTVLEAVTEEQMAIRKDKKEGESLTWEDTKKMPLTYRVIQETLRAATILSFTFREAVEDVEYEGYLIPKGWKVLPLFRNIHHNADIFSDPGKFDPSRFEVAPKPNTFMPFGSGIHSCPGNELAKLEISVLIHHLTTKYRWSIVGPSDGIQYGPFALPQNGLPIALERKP
Kind of assay: Abscisic acid 8′-hydroxylase CYP707A3 inhibition test. It is filed as biochemical. Conditions: CYP707A3 + NADPH-P450 reductase ATR1, substrate ABA, 30° C. 10 minutes; IC50 calculated from two concentrations. As for the experimental part: In a 1.5 mL microtube, 10 μL of a solution of substrate 250 μM ABA in potassium/phosphate buffer (KPB), 5 μL of a solution of the sample in dimethylformamide, 435 μL of KPB and 40 μL of abscisic acid 8′-hydroxylase CYP707A3+NADPH-P450 reductase ATR1 were put and heated at 30° C. for 10 minutes. 10 μL of a solution of 5 mg/mL NADPH in KPB was added thereto thereby starting the enzyme reaction. The reaction was carried out at 30° C. for 10 minutes at a rotation speed of 1000 rpm, and 25 μL of an aqueous solution of 1 M sodium hydroxide was added thereto thereby terminating the reaction. The reaction solution was allowed to stand at 4° C. for 30 minutes and subsequently 50 μL of 1 M hydrochloric acid was added thereto to convert the enzyme metabolite to phaseic acid (PA). The enzyme reaction solution was subjected to an OASIS HLB cartridge (1 cc, 30 mg; washed with 1 mL of methanol (1% acetic acid) and equilibrated with 1 mL of water (1% acetic acid)) and washed with 1 mL of 10% methanol/water (1% acetic acid) thereby eluting phaseic acid with 1 mL of methanol (1% acetic acid). The eluate was concentrated under reduced pressure (toluene was added to azeotrope acetic acid), the obtained substance was dissolved in 50 μL of methanol. 20 μL of the solution was subjected to HPLC (column, YMC-Pack Hydrosphere C18 (6 mm inner diameter×150 mm length); flow rate 1 mL/min; detection 254 nm) analysis. The CYP707A3 inhibition rate of the samples was calculated in accordance with the following formula (3). Note that dimethylformamide was used for the control in place of the sample solution. Each sample was tested with two different concentrations to calculate the 50% inhibition concentration (IC50) based on the enzyme inhibition rates thereof The results are shown in Table 1.
Enzyme inhibition rate (%)={1-(PA peak area of each sample/PA peak area of control)}×100 . . . (3)

Assay [2] deals with T2, ent-kaurene oxidase CYP701A6 (Oryza sativa subsp. japonica, UniProt Q5Z5R4).
T2 sequence (Q5Z5R4 1-505): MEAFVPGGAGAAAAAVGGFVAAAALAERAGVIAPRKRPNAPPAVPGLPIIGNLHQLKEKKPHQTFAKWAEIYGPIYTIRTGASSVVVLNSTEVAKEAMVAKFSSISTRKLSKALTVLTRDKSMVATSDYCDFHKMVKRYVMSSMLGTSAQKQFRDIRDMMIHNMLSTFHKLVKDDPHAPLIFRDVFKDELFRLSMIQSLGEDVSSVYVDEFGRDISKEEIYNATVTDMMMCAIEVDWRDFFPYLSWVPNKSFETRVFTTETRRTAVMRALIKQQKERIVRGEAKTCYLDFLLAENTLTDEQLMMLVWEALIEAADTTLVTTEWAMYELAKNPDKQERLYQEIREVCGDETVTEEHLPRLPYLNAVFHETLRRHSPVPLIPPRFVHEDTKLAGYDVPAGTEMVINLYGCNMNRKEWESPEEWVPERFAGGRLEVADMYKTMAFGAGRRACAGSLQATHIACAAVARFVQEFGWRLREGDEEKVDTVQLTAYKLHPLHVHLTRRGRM
Kind of assay: Ent-kaurene oxidase CYP701A6 inhibition test. In kind it is biochemical. The following applies: CYP701A6 + NADPH-P450 reductase ATR2, substrate ent-kaurene, 30° C. 30 minutes; IC50 calculated from two concentrations. The protocol:
To a 1.5 mL microtube, 8 μL of an aqueous solution of 500 μM ent-kaurene as a substrate in 45% cyclodextrin and 8μL of a solution of the sample in dimethylformamide were put. 10 μL of 2.32 μM ent-kaurene oxidase CYP701A6 and 10 μL of 4.6 unit/mL NADPH-P450 reductase ATR2, heated at 30° C. for 5 minutes in advance, were added thereto. 304 μL of ultra-pure water, 40 μL of 500 mM KPB and 20 μL of an aqueous solution of 20 mM NADPH, heated at 30° C. for 10 minutes in advance, were added thereto thereby starting the enzyme reaction. The reaction was carried out at 30° C. for 30 minutes at a rotation speed of 1000 rpm and 100 μL of 1 M hydrochloric acid was added thereto thereby terminating the reaction. 5 μL of 10 μM abietic acid as the internal standard was added thereto, and the solution was extracted with 400 μL of ethyl acetate. The resultant was dried over sodium sulfate and subsequently concentrated under reduced pressure. 50 μL of methanol and 5 μL of 2 M trimethyl silyldiazomethane were added thereto to methylate carboxylic acid and the resultant was thy-solidified using nitrogen. The solidified product was dissolved in 150 μL of hexane and 1 μL of the resultant solution was subjected to a GC-MS analysis to detect the enzyme metabolite ent-kaurene acid. The CYP701A6 inhibition rate of the samples was calculated in accordance with the following formula (4). Note that the peak area of ent-kaurene acid was calculated from the peak area of m/z 273 and that ent-kaurene acid was identified from the area ratio of m/z 257, 213. The peak area of abietic acid was calculated from the area of m/z 256, and abietic acid was identified from the area ratio of m/z 316. Note that dimethylformamide was used for the control in place of the sample solution. Each sample was tested with two different concentrations to act late the 50% inhibition concentration (IC50) based on the enzyme inhibition rates thereof.
Enzyme inhibition rate (%)={1-(Ent-kaurene acid peak area of each sample/Abietic acid peak area of each sample/(Ent-kaurene acid peak area of control/Abietic acid peak area of control }×100 . . . (4)

As for `COCCOCCOCCOCC#Cc1cccc(/C=C(\[C@@H](O)C(C)(C)C)n2cncn2)c1` [Example 1 (−) Form, (−)-(S)-(E)-1-(3-(2,5,8,11-tetraoxatetradec-13-yn-14-yl)phenyl)-4,4-dimethyl-2-(1H-1,2,4-triazol-1-yl)pent-1-en-3-ol], the potency estimated from few doses in assay [1] was 64 nM; in assay [2], 780 nM.
